Experimental data: US20230174584A1, “Antibiotic Compounds” (priority 2019, published 2023)
In brackets after ≈: the same amount, converted by molar mass.

Key:
E. faecalis E7604 = assay: microbe, parasite or virus in culture; type: cell-based, Enterococcus faecalis
Experimental: (§1) The antibacterial activity of the compounds was tested against a panel of bacteria, including Gram-positive bacteria (S. aureus ATCC29213, S. aureus USA300, S. aureus LIM-2, NR-45881, S. aureus HIP13419, NR-46413, E. faecium E155, E. faecium E7314, E. faecium E980, E. faecalis E1246, E. faecalis E7406 and S. pneumonia 153). The antibacterial activity of the compounds was further tested against S. aureus NY-155, NR-46236, S. aureus HIP12864, NR-46074, S. aureus 880 (BR-VRSA), NR-49120, E. faecalis E1246, E. faecalis E7604, as well as some Gram-negative bacteria (Escherichia coli and Klebsiella pneumoniae). Minimum inhibitory concentrations (MICs) in μg/mL were performed according to the CLSI guidelines. From glycerol stocks, bacterial strains were cultured on blood agar plates and incubated at 37° C. for 18 h. A single colony was transferred to tryptic soy broth (TSB) with 0.002% polysorbate 80 (p80). For the Enterococcus, VISA and VRSA strains, the cultures were grown at 37° C. until the optical density of the suspension reached a level equivalent to the 0.5 McFarland standard. The bacterial suspensions were diluted in TSB with 0.002% p80 to reach a bacterial cell density of 10^6 CFU/mL. In case of the other (vancomycin-sensitive) S. aureus strains, the direct colony suspension method was used. For these strains, after transfer of the colonies to TSB with 0.002% p80, they were immediately diluted to 10^6 CFU/mL, instead of incubated prior to this dilution. In the case of S. pneumonia, direct colony suspension was used by immediately suspending multiple colonies from fresh blood agar plates in TSB+0.002% p80 to an OD600 of 0.5 and subsequent dilution to 10^6 CFU mL^−1 in TSB+0.002% p80+5% lysed horse blood. Antibiotic dilutions for this strains were also made in TSB+0.002% p80+5% lysed horse blood. Both agar and microplates containing S. pneumonia were incubated at 37° C. with 5% CO2 for 24 h with constant shaking (600 rpm). […] The cultures were grown to exponential phase (OD600=0.5) at 37° C. […] In polypropylene 96-well microtiter plates, test compounds were added in biological triplicates and serial diluted 2-fold by transfer and mixing from one well to the next to achieve a final volume of 50 μL per well. An equal volume of bacterial suspension (10^6 CFU mL^−1) was added to the wells. The plates were sealed with breathable membranes and incubated at 37° C. for 24 h with constant shaking (600 rpm). In polypropylene microtiter plates, 100 μL of the test compounds was added to the first row in biological triplicates, and 50 μL of media was added to the other wells. The compounds were subjected to serial dilution by transfer and mixing of 50 μL from one well to the next. Subsequently, 50 μL of bacterial suspension (10^6 CFU/mL) was added to the wells. The plates were sealed with breathable membranes and incubated at 37° C. for 24 h with constant shaking (600 rpm). Positive growth control consisted of wells with bacterial suspension and without antibiotic. Negative growth control consisted of solely media without bacterial suspension or antibiotic. The MICs were determined from the median of a minimum of triplicates.

E. faecalis E7406 = assay: microbe, parasite or virus in culture; type: cell-based, Enterococcus faecalis
Experimental: as §1

[1] = tested on: Klebsiella pneumoniae ATCC 27736; assay: MIC assay; type: cell-based
Experimental: as §1

S. pneumoniae 153 = assay: MIC assay; type: cell-based
Experimental: as §1

[2] = tested on: Escherichia coli ATCC 35218; assay: MIC assay; type: cell-based
Experimental: as §1

[3] = tested on: Escherichia coli ATCC 25922; assay: MIC assay; type: cell-based
Experimental: as §1

Escherichia coli W3110 = assay: MIC assay; type: cell-based
Experimental: as §1

[4] = tested on: Klebsiella pneumoniae ATCC 13883; assay: MIC assay; type: cell-based
Experimental: as §1

[5] = tested on: Klebsiella pneumoniae JS265; assay: MIC assay; type: cell-based
Experimental: as §1

E. faecium E7312 = assay: MIC assay; type: cell-based, Enterococcus faecium; settings: E. faecium E7312, VanA
E. faecium E0341 = assay: MIC assay; type: cell-based, Enterococcus faecium; settings: E. faecium E0341, VanA
[6] = tested on: S. aureus HIP13419, NR-46413; assay: microbe, parasite or virus in culture; type: cell-based, Staphylococcus aureus
Experimental: as §1

S. aureus USA300 = assay: microbe, parasite or virus in culture; type: cell-based, Staphylococcus aureus
Experimental: as §1

E. faecalis E1246 = assay: MIC assay; type: cell-based, Enterococcus faecalis
Experimental: as §1

E. faecium E7314 = assay: microbe, parasite or virus in culture; type: cell-based, Enterococcus faecium
Experimental: as §1

E. faecium E155 = assay: microbe, parasite or virus in culture; type: cell-based, Enterococcus faecium
Experimental: as §1

E. faecium E0338 = assay: MIC assay; type: cell-based, Enterococcus faecium; settings: E. faecium E0338, VanA
[7] = S. pneumoniae 153, TSB+0.002% p80+5% lysed horse blood
[8] = S. aureus HIP13419, NR-46413 VRSA
[9] = E. faecalis E1246 VRE (VanA), Table 7
[10] = E. faecalis E1246 VRE (vanA), Table 9
[11] = E. faecium E7314, VanB (Table 10)
[12] = E. faecium E155, VanA (Table 10)

| Structure (SMILES) | MIC (E. faecalis E7604; E. faecalis E7604 VRE (vanB)) [µg/mL] | MIC (E. faecalis E7406; E. faecalis E7406 VRE (VanB)) [µg/mL] | MIC [1] [µg/mL] | MIC (S. pneumoniae 153; [7]) [µg/mL] | MIC [2] [µg/mL] | MIC [3] [µg/mL] | MIC (Escherichia coli W3110) [µg/mL] | MIC [4] [µg/mL] | MIC [5] [µg/mL] | MIC (E. faecium E7312) [µg/mL] | MIC (E. faecium E0341) [µg/mL] | MIC [6, 8] [µg/mL] | MIC (S. aureus USA300; MRSA USA300, TSB + 0.002% p80) [µg/mL] | MIC (S. aureus USA300; S. aureus USA300 MRSA) [µg/mL] | MIC (E. faecalis E1246; [9]) [µg/mL] | MIC (E. faecalis E1246; [10]) [µg/mL] | MIC (E. faecium E7314; [11]) [µg/mL] | MIC (E. faecium E7314; E. faecium E7314 VRE (VanB)) [µg/mL] | MIC (E. faecium E155; [12]) [µg/mL] | MIC (E. faecium E155; E. faecium E155 VRE (VanA)) [µg/mL] | further results |
| --- | --- | --- | --- | --- | --- | --- | --- | --- | --- | --- | --- | --- | --- | --- | --- | --- | --- | --- | --- | --- | --- |
| CCCCCCCNC(N)=Nc1ccc(CN[C@@]2(C)C[C@H](O[C@H]3[C@H](Oc4c5cc6cc4Oc4ccc(cc4Cl)[C@@H](O)[C@@H](NC(=O)[C@@H](CC(C)C)NC)C(=O)N[C@@H](CC(N)=O)C(=O)N[C@H]6C(=O)N[C@H]4C(=O)N[C@H](C(=O)N[C@H](C(=O)O)c6cc(O)cc(O)c6-c6cc4ccc6O)[C@H](O)c4ccc(c(Cl)c4)O5)O[C@H](CO)[C@@H](O)[C@@H]3O)O[C@@H](C)[C@H]2O)cc1 [Compound 5] | 0.016 (≈ 0.00944 µM) | 0.01562 (≈ 0.00922 µM) | >128 | ≤0.008 | >128 | >128 | >128 | >128 | >128 | 0.25 (≈ 0.148 µM) | 8 (≈ 4.72 µM) | 1 (≈ 0.59 µM) | 0.016 | 0.01562 (≈ 0.00922 µM) | 16 (≈ 9.44 µM) | 16 (≈ 9.44 µM) | ≤0.008 | 0.007812 (≈ 0.00461 µM) | 2 (≈ 1.18 µM) | 2 (≈ 1.18 µM) | MIC (E. faecium E0338): 4 µg/mL (≈ 2.36 µM) |
| CCCCCCCCNC(N)=Nc1ccc(CN[C@@]2(C)C[C@H](O[C@H]3[C@H](Oc4c5cc6cc4Oc4ccc(cc4Cl)[C@@H](O)[C@@H](NC(=O)[C@@H](CC(C)C)NC)C(=O)N[C@@H](CC(N)=O)C(=O)N[C@H]6C(=O)N[C@H]4C(=O)N[C@H](C(=O)N[C@H](C(=O)O)c6cc(O)cc(O)c6-c6cc4ccc6O)[C@H](O)c4ccc(c(Cl)c4)O5)O[C@H](CO)[C@@H](O)[C@@H]3O)O[C@@H](C)[C@H]2O)cc1 [Compound 6] | ≤0.008 | ≤0.007812 | >128 | ≤0.008 | >128 | >128 | >128 | >128 | >128 | 0.063 (≈ 0.0369 µM) | 4 (≈ 2.34 µM) | 0.5 (≈ 0.293 µM) | ≤0.008 | ≤0.007812 | 8 (≈ 4.68 µM) | 8 (≈ 4.68 µM) | ≤0.008 | ≤0.007812 | 1 (≈ 0.585 µM) | 1 (≈ 0.585 µM) | MIC (E. faecium E0338): 2 µg/mL (≈ 1.17 µM) |
| CCCCCCCCCNC(N)=Nc1ccc(CN[C@@]2(C)C[C@H](O[C@H]3[C@H](Oc4c5cc6cc4Oc4ccc(cc4Cl)[C@@H](O)[C@@H](NC(=O)[C@@H](CC(C)C)NC)C(=O)N[C@@H](CC(N)=O)C(=O)N[C@H]6C(=O)N[C@H]4C(=O)N[C@H](C(=O)N[C@H](C(=O)O)c6cc(O)cc(O)c6-c6cc4ccc6O)[C@H](O)c4ccc(c(Cl)c4)O5)O[C@H](CO)[C@@H](O)[C@@H]3O)O[C@@H](C)[C@H]2O)cc1 [Compound 7] | ≤0.008 | ≤0.007812 | >128 | ≤0.008 | >128 | >128 | >128 | >128 | >128 | 0.031 (≈ 0.018 µM) | 1 (≈ 0.58 µM) | 0.125 (≈ 0.0726 µM) | ≤0.008 | ≤0.007812 | 2 (≈ 1.16 µM) | 2 (≈ 1.16 µM) | ≤0.008 | ≤0.007812 | 0.5 (≈ 0.29 µM) | 0.5 (≈ 0.29 µM) | MIC (E. faecium E0338): 0.5 µg/mL (≈ 0.29 µM) |
| CCCCCCN(CCCCCC)C(N)=Nc1ccc(CN[C@@]2(C)C[C@H](O[C@H]3[C@H](Oc4c5cc6cc4Oc4ccc(cc4Cl)[C@@H](O)[C@@H](NC(=O)[C@@H](CC(C)C)NC)C(=O)N[C@@H](CC(N)=O)C(=O)N[C@H]6C(=O)N[C@H]4C(=O)N[C@H](C(=O)N[C@H](C(=O)O)c6cc(O)cc(O)c6-c6cc4ccc6O)[C@H](O)c4ccc(c(Cl)c4)O5)O[C@H](CO)[C@@H](O)[C@@H]3O)O[C@@H](C)[C@H]2O)cc1 [Compound 12] | ≤0.008 | ≤0.007812 | >128 | ≤0.008 | >128 | >128 | >128 | >128 | >128 | 0.125 (≈ 0.0708 µM) | 2 (≈ 1.13 µM) | 0.25 (≈ 0.142 µM) | 0.063 | 0.0625 (≈ 0.0354 µM) | 8 (≈ 4.53 µM) | 8 (≈ 4.53 µM) | ≤0.008 | ≤0.007812 | 1 (≈ 0.567 µM) | 1 (≈ 0.567 µM) | MIC (E. faecium E0338): 2 µg/mL (≈ 1.13 µM) |
| CN[C@H](CC(C)C)C(=O)N[C@H]1C(=O)N[C@@H](CC(N)=O)C(=O)N[C@H]2C(=O)N[C@H]3C(=O)N[C@H](C(=O)N[C@H](C(=O)O)c4cc(O)cc(O)c4-c4cc3ccc4O)[C@H](O[C@H]3C[C@](C)(N)[C@@H](O)[C@H](C)O3)c3ccc(c(Cl)c3)Oc3cc2cc(c3O[C@@H]2O[C@H](CO)[C@@H](O)[C@H](O)[C@H]2O[C@H]2C[C@](C)(NCc3ccc(-c4ccc(Cl)cc4)cc3)[C@@H](O)[C@H](C)O2)Oc2ccc(cc2Cl)[C@H]1O [Oritavancin] | – | – | – | – | – | – | – | – | – | – | – | – | – | – | – | 1 (≈ 0.558 µM) | – | – | – | – | MIC (E. faecalis E7604; Enterococcus faecalis, VRE): 0.063 µg/mL (≈ 0.0351 µM); MIC (E. faecalis E7406; Enterococcus faecalis, VRE): 0.0625 µg/mL (≈ 0.0349 µM); MIC (S. pneumoniae 153; Streptococcus pneumoniae, 153): ≤ 0.008 µg/mL; MIC ([6]; Staphylococcus aureus, VRSA): 0.25 µg/mL (≈ 0.139 µM); MIC (S. aureus USA300; Staphylococcus aureus, MRSA / USA300): 0.0625 µg/mL (≈ 0.0349 µM); MIC (E. faecalis E1246; Enterococcus faecalis, VRE): 1 µg/mL (≈ 0.558 µM); MIC (E. faecium E7314; Enterococcus faecium, VRE): 0.125 µg/mL (≈ 0.0697 µM); MIC (E. faecium E155; Enterococcus faecium, VRE): 0.5 µg/mL (≈ 0.279 µM) |
